Test results reported in patent publication US11339171B2, “MDM2 inhibitors” (Gan & Lee Pharmaceuticals, priority 2017, dated 2022).
“And” between values parts separate entries of the source, which are not always exact repeats. Equal entries are not always repeated. Where two headings read alike, the source gives them in different places.

Experiments:
[1] = biological target: T1, MDM2 (Homo sapiens, UniProt Q00987); assay: Inhibition test of MDM2-P53 (GST-MDM2, Biotin-P53, Anti-GST-Tb, SA-XL665); type: binding
T1 construct: made in house
T1 sequence (Q00987 whole entry): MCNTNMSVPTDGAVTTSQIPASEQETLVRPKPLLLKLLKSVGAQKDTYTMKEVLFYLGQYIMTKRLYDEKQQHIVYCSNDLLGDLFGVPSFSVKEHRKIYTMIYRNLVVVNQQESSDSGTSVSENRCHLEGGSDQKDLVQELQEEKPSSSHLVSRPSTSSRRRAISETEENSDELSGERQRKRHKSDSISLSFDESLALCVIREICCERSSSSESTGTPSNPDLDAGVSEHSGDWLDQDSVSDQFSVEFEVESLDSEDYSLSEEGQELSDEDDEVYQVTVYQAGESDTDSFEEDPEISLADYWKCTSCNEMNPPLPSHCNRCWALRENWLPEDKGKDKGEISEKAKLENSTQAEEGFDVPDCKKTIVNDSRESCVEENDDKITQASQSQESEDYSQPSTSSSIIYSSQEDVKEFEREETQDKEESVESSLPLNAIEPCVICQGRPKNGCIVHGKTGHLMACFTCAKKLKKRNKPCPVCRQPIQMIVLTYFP
Procedure, shortened: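 Binding was measured by TR-FRET with GST-MDM2 at 4 nM final in PBS with 0.1% BSA, 5 mM DTT and 1 mM AEBSF. Compounds were tested as twelve-point 5-fold dilutions and incubated with the detection mix for 90 min at 25 °C with shaking before plate-reader reading and curve fitting.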

[2] = tested on: human osteosarcoma cell line SJSA-1; assay: Inhibition of proliferation of human osteosarcoma cell line SJSA-1 (DAPI staining, In Cell Analyzer); conditions: Homo sapiens, SJSA-1, 72 h, read-out: IC50 (nM), inhibitory activity on proliferation of human osteosarcoma cell line SJSA-1, SJSA-1, incubated 72 h
[3] = Pharmacokinetics in ICR mice after intravenous and intragastric administration; type: in vivo; conditions: for MRT last: read-out: MRT(0-t); for MRT inf: read-out: MRT(0-∞); for Vd: read-out: Vz; for half-life: read-out: t1/2 (converted)
Procedure, shortened: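 Plasma concentration-time data, quantified by LC-MS/MS with a 1 ng/mL lower limit, gave AUC, t1/2, MRT, Cmax, Tmax, bioavailability, Vz and clearance. Overnight-fasted male ICR mice (three per route) received 2 mg/kg intravenously or 5 mg/kg intragastrically.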

[4] = ICR mice, IV 2 mg/kg, individual animal, 2 mg/kg
[5] = ICR mice, PO 5 mg/kg, individual animal, 5 mg/kg
[6] = male, ICR, mouse, plasma, iv, 2 mg/kg, ICR mice, IV 2 mg/kg, individual animal
[7] = male, ICR, mouse, plasma, iv, 2 mg/kg, ICR mice, IV 2 mg/kg, mean of 3 animals
[8] = male, ICR, mouse, plasma, po, 5 mg/kg, ICR mice, PO 5 mg/kg, individual animal
[9] = male, ICR, mouse, plasma, po, 5 mg/kg, ICR mice, PO 5 mg/kg, mean of 3 animals

With `COc1cc(OC)c(-c2nc3c(n2C(C)C)[C@@]2(C(=O)Nc4cc(Cl)ccc42)N(c2cccc(Cl)c2)C3=O)cn1` [Example S-115, (S)-6-chloro-5′-(3-chlorophenyl)-2′-(4,6-dimethoxypyridin-3-yl)-3′-isopropyl-3′H-spiro[dihydroindole-3,4′-pyrrolo[3,4-d]imidazole]-2,6′(5′H)-dione] the IC50 [1] was 1.3 nM, the IC50 [2] was 3360 nM and the “AUC(0-t)” value [3, 4] was 2278.66 ng·h/mL and 2987.42 ng·h/mL. For the same compound, the “AUC(0-∞)” value [3, 4] was 2289.66 ng·h/mL and 3011.30 ng·h/mL, the CL [3, 4] was 14.56 mL/min/kg and 11.07 mL/min/kg and the Cmax [3, 4] was 2549.96 ng/mL and 4136.98 ng/mL. The “MRT(0-t)” value [3, 4] was 47.4 min and 49.2 min, the “MRT(0-∞)” value [3, 4] was 49.2 min and 52.2 min and the Vz [3, 4] was 1.01 L/kg and 0.87 L/kg. The t1/2 [3, 4] was 48 min, the “AUC(0-t)” value [3, 5] was 2355.30 ng·h/mL and 2985.59 ng·h/mL and the “AUC(0-∞)” value [3, 5] was 2377.88 ng·h/mL and 3066.25 ng·h/mL. For the same compound, the Cmax [3, 5] was 2135.46 ng/mL and 834.66 ng/mL and 601.29 ng/mL, the “MRT(0-t)” value [3, 5] was 82.2 min and 128 min and 193 min and the “MRT(0-∞)” value [3, 5] was 84.6 min and 132 min and 203 min. For the same compound, the Tmax [3, 5] was 30 min and 60 min and 240 min, the t1/2 [3, 5] was 71.4 min and 67.2 min and the AUC(0-inf) [3, 6] was 2590 ng·h/mL. It also gave a clearance [3, 6] of 12.9 mL/min/kg, an AUC(0-t) ([3]; male, ICR, mouse, plasma, iv, 2 mg/kg, ICR mice, IV 2 mg/kg, individual animal, read-out: AUC(0-t)) of 2580 ng·h/mL and a Cmax ([3]; male, ICR, mouse, plasma, iv, 2 mg/kg, ICR mice, IV 2 mg/kg, individual animal, read-out: Cmax) of 3000 ng/mL. The MRT last [3, 6] was 54 min, the MRT inf [3, 6] was 56.4 min and the Tmax ([3]; male, ICR, mouse, plasma, iv, 2 mg/kg, ICR mice, IV 2 mg/kg, individual animal, read-out: Tmax) was 4.8 min. The Vd [3, 6] was 1 L/kg, the half-life [3, 6] was 54 min and the AUC(0-inf) [3, 7] was 2630 ng·h/mL. The clearance [3, 7] was 12.8 mL/min/kg, the AUC(0-t) ([3]; male, ICR, mouse, plasma, iv, 2 mg/kg, ICR mice, IV 2 mg/kg, mean of 3 animals, read-out: AUC(0-t)) was 2610 ng·h/mL and the Cmax ([3]; male, ICR, mouse, plasma, iv, 2 mg/kg, ICR mice, IV 2 mg/kg, mean of 3 animals, read-out: Cmax) was 3230 ng/mL. For the same compound, the MRT last [3, 7] was 50.4 min, the MRT inf [3, 7] was 52.8 min and the Tmax ([3]; male, ICR, mouse, plasma, iv, 2 mg/kg, ICR mice, IV 2 mg/kg, mean of 3 animals, read-out: Tmax) was 4.98 min. For the same compound, the Vd [3, 7] was 0.96 L/kg, the half-life [3, 7] was 52.2 min and the AUC(0-inf) [3, 8] was 3670 ng·h/mL. For the same compound, the AUC(0-t) ([3]; male, ICR, mouse, plasma, po, 5 mg/kg, ICR mice, PO 5 mg/kg, individual animal, read-out: AUC(0-t)) was 3660 ng·h/mL, the half-life [3, 8] was 64.2 min and the AUC(0-inf) [3, 9] was 3040 ng·h/mL. The AUC(0-t) ([3]; male, ICR, mouse, plasma, po, 5 mg/kg, ICR mice, PO 5 mg/kg, mean of 3 animals, read-out: AUC(0-t)) was 3000 ng·h/mL, the Cmax ([3]; male, ICR, mouse, plasma, po, 5 mg/kg, ICR mice, PO 5 mg/kg, mean of 3 animals, read-out: Cmax) was 1190 ng/mL and the MRT last [3, 9] was 134 min. The MRT inf [3, 9] was 140 min, the Tmax ([3]; male, ICR, mouse, plasma, po, 5 mg/kg, ICR mice, PO 5 mg/kg, mean of 3 animals, read-out: Tmax) was 110 min and the half-life [3, 9] was 67.2 min. The AUC(0-t) ([3]; male, ICR, mouse, plasma, po, 5 mg/kg, oral intragastric administration 5 mg/kg, read-out: AUC0-t) was 3000 ng·h/mL and the bioavailability ([3]; male, mouse, plasma, ICR mice, PO 5 mg/kg vs IV 2 mg/kg, from mean values, read-out: F* (bioavailability)) was 45.9%.
